Assay results published in patent publication US12522595B2, “Bicyclic ether O-glycoprotein-2-acetamido-2-deoxy-3-D-glucopyranosidase inhibitors” (BIOGEN MA INC., priority 2019, dated 2026).

Target: T1, Recombinant full length human OGA enzyme (Homo sapiens, UniProt O60502)
T1 construct: Recombinant full length human OGA enzyme was purchased from Origene; purchased Origene
T1 sequence (O60502 1-916): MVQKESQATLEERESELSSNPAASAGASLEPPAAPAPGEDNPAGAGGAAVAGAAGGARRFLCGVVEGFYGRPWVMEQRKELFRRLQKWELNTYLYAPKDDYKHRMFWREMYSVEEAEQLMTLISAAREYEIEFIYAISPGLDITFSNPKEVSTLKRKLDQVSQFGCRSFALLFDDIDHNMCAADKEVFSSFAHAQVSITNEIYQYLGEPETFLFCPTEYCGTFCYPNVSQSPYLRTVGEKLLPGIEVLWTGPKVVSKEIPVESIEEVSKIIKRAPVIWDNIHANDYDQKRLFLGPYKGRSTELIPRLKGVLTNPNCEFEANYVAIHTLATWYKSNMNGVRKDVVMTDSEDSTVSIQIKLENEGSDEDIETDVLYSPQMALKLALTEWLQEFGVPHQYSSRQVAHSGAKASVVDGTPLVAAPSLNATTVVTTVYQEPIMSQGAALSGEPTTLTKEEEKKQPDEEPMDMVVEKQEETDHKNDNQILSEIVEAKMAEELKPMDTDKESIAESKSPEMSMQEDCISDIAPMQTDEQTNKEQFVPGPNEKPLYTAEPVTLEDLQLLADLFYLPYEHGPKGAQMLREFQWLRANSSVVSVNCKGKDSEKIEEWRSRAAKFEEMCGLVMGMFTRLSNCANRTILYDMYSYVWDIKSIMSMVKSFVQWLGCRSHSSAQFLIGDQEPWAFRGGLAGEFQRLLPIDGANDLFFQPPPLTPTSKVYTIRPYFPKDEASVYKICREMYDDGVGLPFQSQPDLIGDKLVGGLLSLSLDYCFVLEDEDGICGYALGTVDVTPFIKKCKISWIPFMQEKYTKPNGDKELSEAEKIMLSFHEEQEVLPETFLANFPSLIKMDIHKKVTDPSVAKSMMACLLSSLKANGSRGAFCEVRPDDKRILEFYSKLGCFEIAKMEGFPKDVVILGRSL
Assay: OGA enzyme inhibition biochemical assay
Settings: 1 nM OGA, 100 μM 4-MUGlcNAc (Km), pH 6.4, 90 minutes at room temperature, 10-point dose-response from 20 μM
Procedure, shortened: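 1 nM OGA with 100 μM 4-MUGlcNAc (Km) in McIlvaine buffer pH 6.4, 0.01% BSA, 90 min at room temperature; quenched with 3M glycine pH 10, fluorescence Ex 355/Em 460 nm. 10-point, 4-fold dilutions from 20 μM; 4-parameter variable-slope fit.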

CC(=O)Nc1ncc(CN2C[C@H](Oc3nc4c(cc3C#N)CCCC4)C[C@@H]2C)s1 [Example 32, N-(5-(((2S,4R)-4-((3-cyano-5,6,7,8-tetrahydroquinolin-2-yl)oxy)-2-methylpyrrolidin-1-yl)methyl)thiazol-2-yl)acetamide]
IC50: 11 nM
